Results published in patent publication US20040147478A1, “Combination chemotherapy” (priority 2002, published 2004).
Where two headings read alike, the source gives them in different places.

Assays:
[1] = system: C26/clone 10 mouse colon carcinoma
[2] = system: C26/clone 10 mouse colon carcinoma; remark: listed apart in the source
[3] = system: COLO-205 human colon carcinoma xenografts
[4] = system: COLO-205 human colon carcinoma xenografts; remark: listed apart in the source
[5] = system: COLO-205 human colon carcinoma xenografts; remark: listed apart in the source
in vivo [6] = conditions: female, Balb/C, mouse, po
in vivo [7] = conditions: female, NCr-nu athymic
in vivo [8] = conditions: female, NCr-nu athymic; remark: listed apart in the source
in vivo [9] = conditions: female, NCr-nu athymic; remark: listed apart in the source
[10] = Capecitabine 500 mg/kg qd alone
[11] = highest dose of capecitabine alone
[12] = Capecitabine 500 mg/kg QD alone
[13] = Capecitabine 650 mg/kg QD alone
[14] = Capecitabine 650 mg/kg qd alone
[15] = Compound A single agent at the MTD

## O=C(NOCC1CC1)c1ccc(F)c(F)c1Nc1ccc(I)cc1Cl [CI-1040, 2-(2-Chloro-4-iodo-phenylamino)-N-cyclopropylmethoxy-3,4-difluorobenzamide]
[1]; CI-1040 37.5 mg/kg tid alone
  % Weight Change: −5.1%
  CR (complete response): 0/10
  Net Log10 Kill: −0.62
  Non-specific Deaths: 0/10
  PR (partial response): 0/10
  T-C (tumor growth delay): 3.8 days
  Tumor Free (day 93): 0/10
[1]; CI-1040 75.0 mg/kg tid alone
  % Weight Change: −5.1%
  CR (complete response): 0/10
  Net Log10 Kill: −0.21
  Non-specific Deaths: 0/10
  PR (partial response): 0/10
  T-C (tumor growth delay): 9.8 days
  Tumor Free (day 93): 0/10
[1]; CI-1040 300.0 mg/kg tid alone
  % Weight Change: −5.1%
  CR (complete response): 0/10
  Net Log10 Kill: 0.25
  Non-specific Deaths: 0/10
  PR (partial response): 2/10
  T-C (tumor growth delay): 16.7 days
  Tumor Free (day 93): 0/10
[1]; CI-1040 300 mg/kg/treatment alone
  partial tumor responses: 20%
[1]; CI-1040 alone, over the dosage range administered
  loss of initial body weight: approximately 5%
[2]; CI-1040 37.5 mg/kg tid alone
  % Weight Change: −5.6%
  CR (complete response): 0/10
  Net Log10 Kill: −0.93
  Non-specific Deaths: 0/10
  PR (partial response): 0/10
  T-C (tumor growth delay): 1.9 days
  Tumor Free (day 56): 0/10
[2]; CI-1040 75.0 mg/kg tid alone
  % Weight Change: −10.5%
  CR (complete response): 0/10
  Net Log10 Kill: −0.33
  Non-specific Deaths: 0/10
  PR (partial response): 1/10
  T-C (tumor growth delay): 9.0 days
  Tumor Free (day 56): 0/10
[2]; CI-1040 300.0 mg/kg tid alone
  % Weight Change: −5.3%
  CR (complete response): 0/10
  Net Log10 Kill: −0.04
  Non-specific Deaths: 0/10
  PR (partial response): 4/10
  T-C (tumor growth delay): 12.5 days
  Tumor Free (day 56): 0/10
[2]; highest dose of CI-1040 alone
  partial tumor rate: 40%

## CCCCCOC(=O)Nc1nc(=O)n([C@@H]2O[C@H](C)[C@@H](O)[C@H]2O)cc1F [Capecitabine, 5′-deoxy-5-fluoro-N-[(pentyloxy)carbonyl]-cytidine]
[1]; [10]
  CR (complete response): 4/10
  Net Log10 Kill: 0.50
  Non-specific Deaths: 0/10
  PR (partial response): 1/10
  T-C (tumor growth delay): 18.4 days
  Tumor Free (day 93): 3/10
[1]; both dosages of capecitabine alone
  tumor growth delay: approximately 18 days
[1]; capecitabine 500 mg/kg alone
  complete tumor responses: 40%
  partial tumor responses: 10%
  tumor-free when the study ended on day 93: 30%
[1]; [11]
  complete tumor responses: 70%
  partial tumor responses: 10%
[1]; mouse, in vivo
  loss of initial body weight: approximately 5%
[3]; [12]
  CR (complete response): 0/10
  Net Log10 Kill: 0.7
  Non-specific Deaths: 0/10
  PR (partial response): 1/10
  T-C (tumor growth delay): 33.4 days
  Tumor Free (day 118): 0/10
[3]; [13]
  CR (complete response): 3/10
  Net Log10 Kill: 1.5
  Non-specific Deaths: 0/10
  PR (partial response): 4/10
  T-C (tumor growth delay): 56.0 days
  Tumor Free (day 118): 2/10
[4]; [10]
  Tumor Free (day 112): 1/9
[4]; [14]
  Non-specific Deaths: 0/10
  Tumor Free (day 112): 2/10
[5]; [10]
  Tumor Free (day 129): 0/10
[5]; [14]
  Non-specific Deaths: 0/10
  Tumor Free (day 129): 0/10
In vivo [6]
  MTD: 750 mg/kg/day
In vivo [7]
  MTD: 650 mg/kg
In vivo [8]
  MTD: 650 mg/kg
In vivo [9]
  MTD: 650 mg/kg
[2]; [10]
  CR (complete response): 0/10
  Net Log10 Kill: 0.20
  Non-specific Deaths: 0/10
  PR (partial response): 0/10
  T-C (tumor growth delay): 13.4 days
  Tumor Free (day 56): 0/10
[2]; capecitabine 750 mg/kg alone
  partial tumor responses: 40%

## O=C(NOC[C@H](O)CO)c1ccc(F)c(F)c1Nc1ccc(I)cc1F [Compound A, N-[(R)-2,3-Dihydroxy-propoxy]-3,4-difluoro-2-(2-fluoro-4-iodo-phenylamino)-benzamide]
[3]; Compound A 3.13 mg/kg QD alone
  Net Log10 Kill: 0.9
  T-C (tumor growth delay): 40.6 days
[3]; Compound A 6.25 mg/kg QD alone
  Net Log10 Kill: 0.6
  T-C (tumor growth delay): 30.1 days
[3]; [15]
  growth delays: up to 42 days
[3]; Compound A single agent, all tolerated dose levels
  tumor cells survived treatment (net kill calculations): > 10%
[3]; Compound A single agent, all tolerated doses
  complete regressions: > 50%
[4]; Compound A single agent, most tolerated dose levels
  tumor cells survived treatment (net kill calculations): > 10%
[5]; [15]
  tumor cells survived treatment (net kill calculations): < 10%
In vivo [7]
  MTD: 12.5 mg/kg
In vivo [8]
  MTD: 12.5 mg/kg
In vivo [9]
  MTD: 12.5 mg/kg
